“Also recorded” adds a separate entry of the source.
Experiment: Phase 1/2 study in mCRPC participants: safety
[1] = all causality SAEs, Phases 1 and 2 combined, N = 47
[2] = all-causality TEAEs, Phase 1, N = 34

For `COc1cc(O[C@H]2C(C)(C)[C@H](NC(=O)c3ccc(N4CCC(CN5CCN(c6ccc(C(=O)N[C@H]7CCC(=O)NC7=O)c(F)c6)CC5)CC4)cc3)C2(C)C)ccc1C#N` [Compound A, 4-(4-((1-(4-(((1R,3R)-3-(4-cyano-3-methoxyphenoxy)-2,2,4,4-tetramethylcyclobutyl)carbamoyl)phenyl)piperidin-4-yl)methyl)piperazin-1-yl)-N—((S)-2,6-dioxopiperidin-3-yl)-2-fluorobenzamide], the DLTs (Part A (Phase 1 dose escalation), 20 mg to 500 mg QD) was “No DLTs have been reported”, the “Grade 4 or 5 TRAEs” value (Phase 1) was “no Grade 4 or 5 TRAEs” and the “TRAE of Grade 3 aspartate aminotransferase increased” value (Phase 1) was 1. The “TRAE of Grade 3 fatigue” value (Phase 1) was 1, the “participants who discontinued study treatment due to a TEAE” value (Phase 1) was “No participant” and the “treatment discontinuation due to TRAE” value (Phase 1) was “no treatment discontinuation”. For the same compound, the “participants with treatment-emergent SAEs regardless of attribution” value (Phase 1, of 34) was 11 participants, the tolerability (Phase 1/2, post-NHA mCRPC patients, 40 mg to 500 mg once daily) was “well-tolerated; also recorded: well tolerated” and the “treatment-related SAEs” value (Phase 1 and Phase 2) was “No treatment-related SAEs were reported”. The “grade of the majority of TRAEs” value (Phase 1 dose escalation and Phase 2 interim data) was “Grade 1/2”, the SAEs (Phase 2) was “no SAEs were reported” and the TRAE abdominal pain (Phase 2) was 2 (15.4%) participants. The TRAE alopecia (Phase 2) was 2 (15.4%) participants, the TRAE dysgeusia (Phase 2) was 2 (15.4%) participants and the TRAE nausea (Phase 2) was 2 (15.4%) participants. For the same compound, the “TRAE of Grade 3 abdominal pain” value (Phase 2) was 1, the “dose reductions due to a TRAE” value (Phase 2) was “two” and the “treatment discontinuation due to a TRAE” value (Phase 2) was “one”. The “participants who discontinued treatment due to a TEAE” value (Phase 2, Grade 3 abdominal pain, related) was “One”, the “participants with TEAEs regardless of attribution” value (Phases 1 and 2, of 47) was 44 participants and the “participants with TEAEs at least potentially related to Compound A” value (Phases 1 and 2 combined, of 47) was 25 participants. For the same compound, the “Blood and lymphatic system disorders: Any Grade” value [1] was 1 participants, the “Blood and lymphatic system disorders: Grade 3” value [1] was 0 participants and the “Blood and lymphatic system disorders: Grade 4” value [1] was 1 (2.1) participants. The “Blood and lymphatic system disorders: Grade 5” value [1] was 0 participants, the “Brain stem stroke: Any Grade” value [1] was 1 participants and the “Brain stem stroke: Grade 3” value [1] was 0 participants. For the same compound, the “Brain stem stroke: Grade 4” value [1] was 0 participants, the “Cystitis noninfective: Any Grade” value [1] was 1 participants and the “Cystitis noninfective: Grade 3” value [1] was 1 participants. The “Cystitis noninfective: Grade 4” value [1] was 0 participants, the “Cystitis noninfective: Grade 5” value [1] was 0 participants and the “Diarrhoea: Any Grade” value [1] was 1 participants. The “Diarrhoea: Grade 3” value [1] was 1 participants, the “Diarrhoea: Grade 4” value [1] was 0 participants and the “Diarrhoea: Grade 5” value [1] was 0 participants. For the same compound, the “Dyspnoea: Any Grade” value [1] was 1 participants, the “Dyspnoea: Grade 3” value [1] was 1 participants and the “Dyspnoea: Grade 4” value [1] was 0 participants. For the same compound, the “Dyspnoea: Grade 5” value [1] was 0 participants, the “Febrile neutropenia: Any Grade” value [1] was 1 participants and the “Febrile neutropenia: Grade 3” value [1] was 0 participants. The “Febrile neutropenia: Grade 5” value [1] was 0 participants, the “Gastrointestinal disorders: Any Grade” value [1] was 1 participants and the “Gastrointestinal disorders: Grade 3” value [1] was 1 participants. The “Gastrointestinal disorders: Grade 4” value [1] was 0 participants, the “Gastrointestinal disorders: Grade 5” value [1] was 0 participants and the “Grade 2 lethargy (SAE)” value [1] was “one”. The “Haematuria: Any Grade” value [1] was 1 participants, the “Haematuria: Grade 3” value [1] was 1 participants and the “Haematuria: Grade 4” value [1] was 0 participants. The “Haematuria: Grade 5” value [1] was 0 participants, the “Hypoxia: Any Grade” value [1] was 1 participants and the “Hypoxia: Grade 3” value [1] was 1 participants. For the same compound, the “Hypoxia: Grade 4” value [1] was 0 participants, the “Hypoxia: Grade 5” value [1] was 0 participants and the “Infections and infestations: Any Grade” value [1] was 2 participants. For the same compound, the “Infections and infestations: Grade 3” value [1] was 2 participants, the “Infections and infestations: Grade 4” value [1] was 0 participants and the “Infections and infestations: Grade 5” value [1] was 0 participants. For the same compound, the “Lethargy: Any Grade” value [1] was 1 participants, the “Lethargy: Grade 3” value [1] was 0 participants and the “Lethargy: Grade 4” value [1] was 0 participants. For the same compound, the “Lethargy: Grade 5” value [1] was 0 participants, the “Nervous system disorders: Any Grade” value [1] was 4 participants and the “Nervous system disorders: Grade 3” value [1] was 2 participants. For the same compound, the “Nervous system disorders: Grade 4” value [1] was 0 participants, the “Nervous system disorders: Grade 5” value [1] was 1 (2.1) participants and the “Participants with any serious TEAEs: Any Grade” value [1] was 11 participants. For the same compound, the “Participants with any serious TEAEs: Grade 3” value [1] was 8 participants, the “Participants with any serious TEAEs: Grade 4” value [1] was 1 (2.1) participants and the “Participants with any serious TEAEs: Grade 5” value [1] was 1 (2.1) participants. For the same compound, the “Pneumonia: Any Grade” value [1] was 1 participants, the “Pneumonia: Grade 3” value [1] was 1 participants and the “Pneumonia: Grade 4” value [1] was 0 participants. The “Pneumonia: Grade 5” value [1] was 0 participants, the “Renal and urinary disorders: Any Grade” value [1] was 3 participants and the “Renal and urinary disorders: Grade 3” value [1] was 3 participants. The “Renal and urinary disorders: Grade 4” value [1] was 0 participants, the “Renal and urinary disorders: Grade 5” value [1] was 0 participants and the “Respiratory, thoracic and mediastinal disorders: Any Grade” value [1] was 2 participants. For the same compound, the “Respiratory, thoracic and mediastinal disorders: Grade 3” value [1] was 2 participants, the “Respiratory, thoracic and mediastinal disorders: Grade 4” value [1] was 0 participants and the “Respiratory, thoracic and mediastinal disorders: Grade 5” value [1] was 0 participants. For the same compound, the “Soft tissue infection: Any Grade” value [1] was 1 participants, the “Soft tissue infection: Grade 3” value [1] was 1 participants and the “Soft tissue infection: Grade 4” value [1] was 0 participants. For the same compound, the “Soft tissue infection: Grade 5” value [1] was 0 participants, the “Spinal cord compression: Any Grade” value [1] was 1 participants and the “Spinal cord compression: Grade 3” value [1] was 1 participants. The “Spinal cord compression: Grade 4” value [1] was 0 participants, the “Spinal cord compression: Grade 5” value [1] was 0 participants and the “Tremor: Any Grade” value [1] was 1 participants. The “Tremor: Grade 3” value [1] was 1 participants, the “Tremor: Grade 4” value [1] was 0 participants and the “Tremor: Grade 5” value [1] was 0 participants. For the same compound, the “Urinary tract obstruction: Any Grade” value [1] was 1 participants, the “Urinary tract obstruction: Grade 3” value [1] was 1 participants and the “Urinary tract obstruction: Grade 4” value [1] was 0 participants. The “Urinary tract obstruction: Grade 5” value [1] was 0 participants, the “Alopecia: Any Grade” value [2] was 4 participants and the “Alopecia: Grade 3” value [2] was 0 participants. For the same compound, the “Alopecia: Grade 4” value [2] was 0 participants, the “Alopecia: Grade 5” value [2] was 0 participants and the “Anaemia: Any Grade” value [2] was 6 participants. For the same compound, the “Anaemia: Grade 3” value [2] was 0 participants, the “Anaemia: Grade 4” value [2] was 0 participants and the “Anaemia: Grade 5” value [2] was 0 participants. The “Aspartate aminotransferase increased: Any Grade” value [2] was 5 participants, the “Aspartate aminotransferase increased: Grade 3” value [2] was 1 participants and the “Aspartate aminotransferase increased: Grade 4” value [2] was 0 participants. For the same compound, the “Aspartate aminotransferase increased: Grade 5” value [2] was 0 participants, the “Blood alkaline phosphatase increased: Any Grade” value [2] was 8 participants and the “Blood alkaline phosphatase increased: Grade 3” value [2] was 0 participants. For the same compound, the “Blood alkaline phosphatase increased: Grade 4” value [2] was 0 participants, the “Blood alkaline phosphatase increased: Grade 5” value [2] was 0 participants and the “Blood and lymphatic system disorders: Any Grade” value [2] was 7 participants. For the same compound, the “Blood and lymphatic system disorders: Grade 3” value [2] was 0 participants, the “Blood and lymphatic system disorders: Grade 4” value [2] was 1 participants and the “Blood and lymphatic system disorders: Grade 5” value [2] was 0 participants. The “Blood creatinine increased: Any Grade” value [2] was 7 participants, the “Blood creatinine increased: Grade 3” value [2] was 0 participants and the “Blood creatinine increased: Grade 4” value [2] was 0 participants. For the same compound, the “Blood creatinine increased: Grade 5” value [2] was 0 participants, the “Constipation: Any Grade” value [2] was 4 participants and the “Constipation: Grade 3” value [2] was 0 participants. The “Constipation: Grade 4” value [2] was 0 participants, the “Constipation: Grade 5” value [2] was 0 participants and the “Cough: Any Grade” value [2] was 4 participants. For the same compound, the “Cough: Grade 3” value [2] was 0 participants, the “Cough: Grade 4” value [2] was 0 participants and the “Cough: Grade 5” value [2] was 0 participants. For the same compound, the “Decreased appetite: Any Grade” value [2] was 5 participants, the “Decreased appetite: Grade 3” value [2] was 0 participants and the “Decreased appetite: Grade 4” value [2] was 0 participants. For the same compound, the “Decreased appetite: Grade 5” value [2] was 0 participants, the “Diarrhoea: Any Grade” value [2] was 7 participants and the “Diarrhoea: Grade 3” value [2] was 2 participants. The “Diarrhoea: Grade 4” value [2] was 0 participants, the “Diarrhoea: Grade 5” value [2] was 0 participants and the “Dyspnoea: Any Grade” value [2] was 4 participants. The “Dyspnoea: Grade 3” value [2] was 1 participants, the “Dyspnoea: Grade 4” value [2] was 0 participants and the “Dyspnoea: Grade 5” value [2] was 0 participants. For the same compound, the “Fatigue: Any Grade” value [2] was 12 participants, the “Fatigue: Grade 3” value [2] was 1 participants and the “Fatigue: Grade 4” value [2] was 0 participants.

Source: patent US20240180900A1, “COMPOUNDS AND METHODS FOR THE TARGETED DEGRADATION OF ANDROGEN RECEPTOR” (Arvinas Operations, Inc., priority 2022, published 2024)
